Laboratory results: patent EP0721336B1, “BENZAZOLE COMPOUNDS FOR USE IN THERAPY” (CANCER RESEARCH CAMPAIGN TECHNOLOGY LIMITED, priority 1993, dated 1995)
pIC50: −log10 of the molar value. In brackets after ≈: the same amount, converted by molar mass. Where two headings read alike, the source gives them in different places.

How the values were obtained:
[1] = Lethal dose (LD50) determination; format: in vivo
[2] = test system: IGR37 melanoma; assay: In vitro cytotoxicity assay; format: cell-based; conditions: Homo sapiens, IGR-37
Text: (§1) This is illustrated in Tables 1 and 2 at the end of the present description which show in vitro test results obtained in various sets of experiments for the cytotoxic activity of this compound CJM 126 against a range of human tumour cell lines, expressed in terms of IC50 values (concentration or dosage required to reduce cell growth or proliferation by 50%) calculated from dose-effect curves plotted for cultures of the cells in question.
(§2) In carrying out the above in vitro studies, the method used for conducting the cytotoxicity assays was generally substantially as follows: • Cells were maintained in a continuous logarithmic culture in Dulbecco's medium supplemented with 10% fetal calf serum and penicillin (100 IU/ml) and streptomycin (100 µg/ml). The cells were mildly trypsinized for passage and for use in assays. On day zero, 100µl of trypsinized tumour cells (1 x 10^4/ml) were plated in the wells of 96-well flat-bottom microtiter plates. […] On day two 50µl of the highest drug concentration was added to the wells of column 12 and from there serially diluted 3-fold to column 1 by serial transfer of 50µl using an 8-channel micropipette. The final volume of column 1 was adjusted to 100µl. No additions were made to the wells of rows A and B, which served as controls. The plates were further incubated for 5 days at 37°C and 5% CO2 in air. Each compound was tested in duplicate. • On day 7 the test was terminated by the addition of 100µl saline containing 0.002% w/v propidium iodide (Sigma), 0.3% drawing ink (Staedtler "Marsmatic 745" - Trade Mark) and 0.5% Triton X-100. The plates were kept at 4°C overnight before reading on an inverted microscope equipped with an automated scanning stage. Fluorescence intensity was measured in arbitrary units by a photomultiplier. An HP-87 computer controlled the movement of the stage and also collected and processed the data from the multiplier. • For each compound tested a dose-response curve was obtained and the IC50 value (the drug concentration at 50% inhibition of cell growth) was calculated.

[3] = test system: CH 1 ovarian carcinoma; assay: In vitro cytotoxicity assay; format: cell-based; conditions: Homo sapiens; 2nd series of experiments
Text: as §1, §2

[4] = test system: MCF 7-B (ER+); assay: In vitro cytotoxicity assay; format: cell-based; conditions: Homo sapiens; 2nd series of experiments
Text: as §1, §2

[5] = test system: HT29 colon carcinoma; assay: In vitro cytotoxicity assay; format: cell-based; conditions: Homo sapiens, HT-29
Text: as §1, §2

[6] = test system: WiDr colon carcinoma; assay: In vitro cytotoxicity assay; format: cell-based; conditions: Homo sapiens
Text: as §1, §2

[7] = test system: 41M/CisP; assay: In vitro cytotoxicity assay; format: cell-based; conditions: Homo sapiens; 2nd series of experiments
Text: as §1, §2

[8] = test system: MCF 7-T (ER-); assay: In vitro cytotoxicity assay; format: cell-based; conditions: Homo sapiens; 2nd series of experiments
Text: as §1, §2

[9] = test system: 41M ovarian carcinoma; assay: In vitro cytotoxicity assay; format: cell-based; conditions: Homo sapiens; 2nd series of experiments
Text: as §1, §2

[10] = test system: HX/62 ovarian carcinoma; assay: In vitro cytotoxicity assay; format: cell-based; conditions: Homo sapiens, HX62; 2nd series of experiments
Text: as §1, §2

[11] = test system: A2780/CisR; assay: In vitro cytotoxicity assay; format: cell-based; conditions: Homo sapiens, A2780cisR; 2nd series of experiments
Text: as §1, §2

[12] = test system: ZR 75 mammary (ER+); assay: In vitro cytotoxicity assay; format: cell-based; conditions: Homo sapiens, ZR75
Text: as §1, §2

[13] = test system: A204 rhabdomyosarcoma; assay: In vitro cytotoxicity assay; format: cell-based; conditions: Homo sapiens
Text: as §1, §2

[14] = test system: MDA 231 mammary (EGFR+/erbB3+); assay: In vitro cytotoxicity assay; format: cell-based; conditions: Homo sapiens, MDA-MB-231
Text: as §1, §2

[15] = test system: CH 1/CisR; assay: In vitro cytotoxicity assay; format: cell-based; conditions: Homo sapiens, CH1cisR; 2nd series of experiments
Text: as §1, §2

[16] = test system: SKOV-3 ovarian carcinoma; assay: In vitro cytotoxicity assay; format: cell-based; conditions: Homo sapiens, SK-OV-3; 2nd series of experiments
Text: as §1, §2

[17] = test system: T24 bladder carcinoma; assay: In vitro cytotoxicity assay; format: cell-based; conditions: Homo sapiens
Text: as §1, §2

[18] = test system: SKBR3 mammary (ER-); assay: In vitro cytotoxicity assay; format: cell-based; conditions: Homo sapiens, SK-BR-3
Text: as §1, §2

[19] = test system: T47D mammary (ER-); assay: In vitro cytotoxicity assay; format: cell-based; conditions: Homo sapiens, 2nd series of experiments
Text: as §1, §2

[20] = Aqueous solubility; format: physicochemical; conditions: water
Procedure: The latter was first obtained (as yellow crystals, m.p. 229-231°C, crystallised from methanol or dimethyl formamide) either via Route C (71% yield) from 2-aminothiophenol and 4-nitrobenzoyl chloride, or via Route D (10% yield) from the corresponding thiobenzanilide and potassium ferricyanide.

[21] = 2nd series of experiments, read-out: IC50

Structure (SMILES): Nc1ccc(-c2nc3ccccc3s2)cc1 [CJM 126, 2-(4-aminophenyl)benzothiazole]
- LD50 ([1]; daily administration over 3 consecutive days): > 31 mg/kg/day
- LD50 ([1]; male, DBA/2, mouse, in vivo, ip, single i.p. dose, read-out: LD50): ~125 mg/kg
- IC50 ([2]; 1st series of experiments): 24 µg/mL
- pIC50 ([2]; 2nd series of experiments): 3.97
- pIC50 [3]: 4.66
- pIC50 [4]: 4.21
- IC50 ([5]; 1st series of experiments): 7.57 µg/mL
- pIC50 ([5]; 2nd series of experiments): 4.48
- IC50 ([6]; 1st series of experiments): 6.01 µg/mL
- pIC50 ([6]; 2nd series of experiments): 4.59
- pIC50 [7]: 4.40
- pIC50 [8]: 4.89
- pIC50 [9]: 4.44
- pIC50 [10]: 3.92
- pIC50 [11]: 4.43
- pIC50 [12, 21]: 7.55
- pIC50 ([12]; ZR 75, read-out: estimated IC50): ~7.61
- IC50 ([13]; 1st series of experiments): 5.94 µg/mL
- pIC50 ([13]; 2nd series of experiments): 4.59
- pIC50 [14, 21]: 7.77
- pIC50 ([14]; MDA 231, read-out: estimated IC50): ~7.76
- pIC50 [15]: 4.48
- pIC50 [16]: 4.19
- IC50 ([17]; 1st series of experiments): 16.9 µg/mL
- pIC50 ([17]; 2nd series of experiments): 4.12
- pIC50 [18, 21]: 7.59
- pIC50 ([18]; SKBR3, read-out: estimated IC50): ~7.59
- pIC50 [19]: 4.36
- solubility [20]: ~3.8 µg/mL (≈ 16.8 µM)
